# Test results taken from patent US20160024071A1, “INHIBITORS OF LRRK2 KINASE ACTIVITY” (ELAN PHARMACEUTICALS, LLC., priority 2013, published 2016).
# Target: T1, recombinant GST-LRRK2 (wild-type) (Homo sapiens, UniProt Q5S007)
# T1 construct: GST (N); purchased Invitrogen
# Assay: LRRK2 TR-FRET peptide assay (wild-type)
# Type: biochemical
# Conditions: 100 μM ATP, 100 nM biotin-LRRKtide, 10 nM kinase, 60 min room temperature
# Method: Compounds as described herein (compounds of Formula I, e.g., compounds of the above Examples) are tested for their in vitro kinase activities using various LRRK2 (including LRRK2 G2019S mutant) assays. For example, assays were performed in a total volume of 20 μL using the same kinase reaction buffer (50 mM HEPES pH 7.5, 10 mM MgCl2, 1 mM EGTA, 2 mM DTT and 0.01% Tween-20) for wild-type or G2019S mutant LRRK2. Serially diluted compounds (1% DMSO as co-solvent) were pre-incubated with recombinant GST-LRRK2 (wild-type, or G2019S mutant, Invitrogen) for 15 minutes at room temperature in 384-well Corning black plates. Mixtures of ATP and biotin-LRRKtide substrate (biotin-RLGRDKYKTLRQIRQ) were added to the wells at a final concentration of 100 μM ATP and 100 nM substrate, with final kinase concentration of 10 nM. The kinase reactions were carried out at room temperature for 60 minutes, then the reaction was stopped with the addition of 10 μL/well of stop/detection buffer (25 mM HEPES pH 7.5, 66 mM EDTA, 0.8 M KF and 0.1% BSA) that contains streptavidin-XL665 (12.5 nM) and europium-conjugated phospho-specific antibody (2 nM). The plates were read 1 hour later and the time-resolved fluorescence (665 nm to 615 nm ratio) measured using an Envision reader. The inhibition of each well was calculated using the control and background readings for that plate. IC50 values were determined from dose-response curves using eight concentrations from the serial dilution of the test compounds.
# T1 sequence (Q5S007 whole entry): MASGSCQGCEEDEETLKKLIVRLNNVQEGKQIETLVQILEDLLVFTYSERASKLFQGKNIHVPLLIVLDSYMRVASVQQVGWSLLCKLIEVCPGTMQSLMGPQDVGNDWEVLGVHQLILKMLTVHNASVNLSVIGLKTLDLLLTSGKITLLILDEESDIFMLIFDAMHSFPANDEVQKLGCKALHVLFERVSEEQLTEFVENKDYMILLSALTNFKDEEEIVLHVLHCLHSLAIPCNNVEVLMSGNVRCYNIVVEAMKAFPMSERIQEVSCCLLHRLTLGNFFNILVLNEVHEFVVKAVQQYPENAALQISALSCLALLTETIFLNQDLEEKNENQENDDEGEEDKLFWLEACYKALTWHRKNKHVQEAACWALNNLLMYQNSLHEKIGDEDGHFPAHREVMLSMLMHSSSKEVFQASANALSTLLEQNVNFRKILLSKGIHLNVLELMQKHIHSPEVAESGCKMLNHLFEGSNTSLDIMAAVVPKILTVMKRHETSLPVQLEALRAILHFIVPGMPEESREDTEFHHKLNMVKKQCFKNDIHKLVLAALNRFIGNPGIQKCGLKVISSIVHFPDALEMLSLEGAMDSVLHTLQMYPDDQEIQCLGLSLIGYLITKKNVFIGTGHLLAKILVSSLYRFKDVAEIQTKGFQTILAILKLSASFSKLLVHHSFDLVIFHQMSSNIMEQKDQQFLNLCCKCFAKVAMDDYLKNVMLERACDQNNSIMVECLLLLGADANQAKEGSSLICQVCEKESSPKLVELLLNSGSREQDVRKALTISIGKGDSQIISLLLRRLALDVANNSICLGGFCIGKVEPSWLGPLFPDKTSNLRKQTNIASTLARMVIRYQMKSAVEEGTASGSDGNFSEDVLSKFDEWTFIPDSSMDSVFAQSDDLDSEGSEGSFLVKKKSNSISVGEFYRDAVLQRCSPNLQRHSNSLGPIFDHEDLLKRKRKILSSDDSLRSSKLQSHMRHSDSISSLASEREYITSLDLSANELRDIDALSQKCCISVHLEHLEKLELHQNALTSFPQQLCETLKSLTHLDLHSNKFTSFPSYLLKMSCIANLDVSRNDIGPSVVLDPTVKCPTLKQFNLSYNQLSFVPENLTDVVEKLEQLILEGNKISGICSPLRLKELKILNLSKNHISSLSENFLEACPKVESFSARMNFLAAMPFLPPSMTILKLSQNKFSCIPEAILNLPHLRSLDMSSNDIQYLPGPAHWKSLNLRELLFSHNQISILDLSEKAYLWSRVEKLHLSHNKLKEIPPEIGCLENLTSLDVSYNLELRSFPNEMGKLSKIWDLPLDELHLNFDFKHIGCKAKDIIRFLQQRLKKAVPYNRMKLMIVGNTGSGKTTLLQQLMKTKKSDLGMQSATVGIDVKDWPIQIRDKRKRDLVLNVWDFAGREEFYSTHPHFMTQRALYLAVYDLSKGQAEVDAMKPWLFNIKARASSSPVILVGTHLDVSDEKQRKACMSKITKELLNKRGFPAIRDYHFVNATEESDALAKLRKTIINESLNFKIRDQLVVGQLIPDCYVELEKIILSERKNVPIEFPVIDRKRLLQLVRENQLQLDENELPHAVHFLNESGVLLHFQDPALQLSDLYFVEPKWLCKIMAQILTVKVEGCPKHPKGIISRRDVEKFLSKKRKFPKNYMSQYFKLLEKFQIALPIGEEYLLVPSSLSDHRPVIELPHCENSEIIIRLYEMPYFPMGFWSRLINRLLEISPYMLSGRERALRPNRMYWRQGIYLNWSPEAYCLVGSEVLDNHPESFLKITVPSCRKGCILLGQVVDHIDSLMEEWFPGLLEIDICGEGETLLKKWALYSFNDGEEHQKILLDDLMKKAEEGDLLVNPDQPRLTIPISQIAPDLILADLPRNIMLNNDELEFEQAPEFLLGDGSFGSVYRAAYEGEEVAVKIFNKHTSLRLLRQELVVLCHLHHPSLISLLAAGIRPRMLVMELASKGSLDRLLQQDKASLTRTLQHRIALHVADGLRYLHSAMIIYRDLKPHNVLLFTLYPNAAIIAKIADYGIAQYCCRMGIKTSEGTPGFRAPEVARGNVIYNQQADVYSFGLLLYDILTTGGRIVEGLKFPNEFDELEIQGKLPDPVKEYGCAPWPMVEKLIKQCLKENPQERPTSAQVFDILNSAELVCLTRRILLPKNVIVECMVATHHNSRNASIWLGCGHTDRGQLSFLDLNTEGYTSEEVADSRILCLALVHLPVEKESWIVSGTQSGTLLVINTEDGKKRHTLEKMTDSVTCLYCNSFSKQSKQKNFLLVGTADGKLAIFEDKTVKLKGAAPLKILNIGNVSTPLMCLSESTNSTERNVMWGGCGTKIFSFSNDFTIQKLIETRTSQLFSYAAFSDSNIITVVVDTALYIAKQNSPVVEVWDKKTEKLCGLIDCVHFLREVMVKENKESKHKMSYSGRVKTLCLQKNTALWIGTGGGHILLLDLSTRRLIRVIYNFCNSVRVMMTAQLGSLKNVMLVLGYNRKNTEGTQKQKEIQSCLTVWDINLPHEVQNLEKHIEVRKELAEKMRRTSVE
row,SMILES,IC50
1,"O=C(NN=C1SCC(=O)N1c1ccccc1)c1ccc(Cl)s1 [Compound 1-6, 5-chloro-N′-(4-oxo-3-phenylthiazolidin-2-ylidene)thiophene-2-carbohydrazide]",0.9 nM
2,"CC1SC(=NNC(=O)c2ccc(Cl)s2)N(c2ccccc2)C1=O (stereo not drawn) [Compound 1-7, 5-chloro-N′-(5-methyl-4-oxo-3-phenylthiazolidin-2-ylidene)thiophene-2-carbohydrazide]",11 nM
3,"O=C(NN=C1SCC(=O)N1c1cccc(F)c1)c1ccc(Cl)s1 [Compound 1-8, 5-chloro-N′-(3-(3-fluorophenyl)-4-oxothiazolidin-2-ylidene)thiophene-2-carbohydrazide]",1.1 nM
4,"COc1ccccc1N1C(=O)CSC1=NNC(=O)c1ccc(Cl)s1 [Compound 1-9, 5-chloro-N′-(3-(2-methoxyphenyl)-4-oxothiazolidin-2-ylidene)thiophene-2-carbohydrazide]",1170 nM
5,"O=C(NN=C1SCC(=O)N1c1ccccc1F)c1ccc(Cl)s1 [Compound 1-10, 5-chloro-N′-(3-(2-fluorophenyl)-4-oxothiazolidin-2-ylidene)thiophene-2-carbohydrazide]",0.5 nM
6,"O=C(NN=C1SCC(=O)N1c1ccc(F)cc1)c1ccc(Cl)s1 [Compound 1-11, 5-chloro-N′-(3-(4-fluorophenyl)-4-oxothiazolidin-2-ylidene)thiophene-2-carbohydrazide]",0.9 nM
7,"O=C(NN=C1SCC(=O)N1c1ccc(F)cc1F)c1ccc(Cl)s1 [Compound 1-12, 5-chloro-N′-(3-(2,4-difluorophenyl)-4-oxothiazolidin-2-ylidene)thiophene-2-carbohydrazide]",0.5 nM

# The next lines start with the values.
row,IC50,SMILES
1,210 nM,"CC(C)C1SC(=NNC(=O)c2ccc(Cl)s2)N(c2ccccc2)C1=O (stereo not drawn) [Compound 1-13, 5-chloro-N′-(5-isopropyl-4-oxo-3-phenylthiazolidin-2-ylidene)thiophene-2-carbohydrazide]"
2,330 nM,"CC1(C)SC(=NNC(=O)c2ccc(Cl)s2)N(c2ccccc2)C1=O [Compound 1-14, 5-chloro-N′-(5,5-dimethyl-4-oxo-3-phenylthiazolidin-2-ylidene)thiophene-2-carbohydrazide]"
3,13 nM,"O=C(NN=C1SCC(=O)N1Cc1ccccc1)c1ccc(Cl)s1 [Compound 1-15, N′-(3-benzyl-4-oxothiazolidin-2-ylidene)-5-chlorothiophene-2-carbohydrazide]"
4,111 nM,"O=C(NN=C1SCC(=O)N1c1cccc(C(F)(F)F)c1)c1ccc(Cl)s1 [Compound 1-16, 5-chloro-N′-(4-oxo-3-(3-(trifluoromethyl)phenyl)thiazolidin-2-ylidene)thiophene-2-carbohydrazide]"
5,51 nM,"O=C(NN=C1SCCN1c1ccccc1)c1ccc(Cl)s1 [Compound 2-19, 5-chloro-N′-(3-phenylthiazolidin-2-ylidene)thiophene-2-carbohydrazide]"
